Experiments:
Assay in all cases: relative viability (nuclei count vs DMSO), 5 days (fraction); higher = more cells survive
[1] = compound: NC(=O)Nc1cc(-c2cccc(F)c2)sc1C(=O)N[C@H]1CCCNC1 [AZD7762]
Method in brief: (§1)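 After an overnight hold at 37 °C, lung cancer cell lines in 1536-well plates were pinned with five library-drug doses (not always all listed), each √10 from the next, on vehicle-anchored plates. The cells stayed 5 days without fresh medium, then a one-step fix, permeabilisation and Hoechst stain preceded 4× imaging and MetaXpress nuclear counts. A plate passed only with control CV under 25% and at least one doubling. Viability is the median, over plates, of treated-well nuclei relative to vehicle-well nuclei.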

[2] = compound: CCCCCCCC[C@H]1[C@@H](C(=C)C(=O)O1)C(=O)O [C-75]
Method in brief: as §1

[3] = compound: CC1(C)CCC(c2ccc(Cl)cc2)=C(CN2CCN(c3ccc(C(=O)NS(=O)(=O)c4ccc(N[C@H](CCN5CCOCC5)CSc5ccccc5)c(S(=O)(=O)C(F)(F)F)c4)cc3)CC2)C1 [Navitoclax]
Method in brief: as §1

[4] = compound: O=C(O)c1ccc(-c2c[nH]c3ncc(-c4ccccc4)cc23)cc1C1CCCC1
Method in brief: as §1

[5] = compound: Oc1nc(-c2ccc(C(F)(F)F)cc2)nc2c1CSCC2 [XAV939]
Method in brief: as §1

| Cell Line | relative viability ([1]; 0.01 µM) | relative viability ([1]; 0.03162 µM) | relative viability ([1]; 0.1 µM) | relative viability ([1]; 0.2 µM, anchor plate) | relative viability ([1]; 0.3162 µM) | relative viability ([1]; 1 µM) | relative viability ([2]; 0.08 µM) | relative viability ([2]; 0.253 µM) | relative viability ([2]; 0.8 µM) | relative viability ([2]; 2.53 µM) | relative viability ([2]; 8 µM) | relative viability ([3]; 0.005 µM) | relative viability ([3]; 0.01581 µM) | relative viability ([3]; 0.05 µM) | relative viability ([3]; 0.1581 µM) | relative viability ([3]; 0.5 µM) | relative viability ([3]; 0.5 µM, anchor plate) | relative viability ([4]; 0.04 µM) | relative viability ([4]; 0.1265 µM) | relative viability ([4]; 0.4 µM) | relative viability ([4]; 1.265 µM) | relative viability ([5]; 0.08 µM) | relative viability ([5]; 0.253 µM) | relative viability ([5]; 0.8 µM) | relative viability ([5]; 2.53 µM) |
| --- | --- | --- | --- | --- | --- | --- | --- | --- | --- | --- | --- | --- | --- | --- | --- | --- | --- | --- | --- | --- | --- | --- | --- | --- | --- |
| NCI-H2170 | 1 | 1.01 | 1.02 | 0.858 | 0.989 | 0.972 | 0.984 | 0.94 | 0.943 | 0.913 | 0.954 | 1.02 | 1.06 | 1.06 | 0.935 | 0.748 | 0.636 | 1.01 | 1 | 0.937 | 0.904 | 0.937 | 0.886 | 0.939 | 0.785 |
| NCI-H2228 | 1.17 | 0.982 | 0.997 | – | 0.649 | 0.361 | 0.969 | 1.09 | 0.952 | 0.986 | 1.06 | 0.965 | 1.01 | – | 0.968 | 1.11 | 0.968 | 0.942 | 1.09 | 0.924 | 0.639 | 1.01 | 0.811 | 0.921 | 0.88 |
| NCI-H2342 | 0.903 | 1.1 | 0.983 | 0.514 | 0.997 | 1.04 | 0.924 | 0.988 | 0.833 | 0.857 | 1.04 | 1.01 | 0.999 | 0.938 | 0.961 | 1.01 | – | 0.943 | 0.985 | 0.979 | 1.1 | 1.04 | 0.794 | 0.781 | 0.508 |
| NCI-H2347 | 1.16 | 1.04 | 1.24 | 0.812 | 1.21 | 0.922 | 0.991 | 1.09 | 0.973 | 0.862 | 1.02 | 1.02 | 1.12 | 0.906 | 1.02 | 1.03 | 0.757 | 1.1 | 1.08 | 1.02 | 0.906 | 1.19 | 0.978 | 0.964 | 0.84 |
| NCI-H2405 | 1.02 | 1.11 | 1.02 | 0.763 | 0.953 | 0.585 | 1.01 | 0.737 | 0.948 | 0.872 | 1.07 | 0.984 | 1.11 | 0.996 | 1.03 | 0.93 | 0.845 | 0.998 | 1.13 | 0.977 | 0.741 | 1.03 | 0.978 | 0.966 | 0.993 |
| NCI-H3122 | 1.01 | 1.02 | 1.01 | 0.983 | 0.88 | 1.04 | 1 | 1 | 0.996 | 0.692 | 0.992 | 1.01 | 0.965 | 1.06 | 0.989 | 0.972 | 1.01 | 0.986 | 1.04 | 0.959 | 0.946 | 1.01 | 0.936 | 1.02 | 0.966 |
| PC-3 [JPC-3] | 1.03 | 1.06 | 1.1 | 0.897 | 1.05 | 0.931 | 0.961 | 0.97 | 0.994 | 0.995 | 1.16 | 1.03 | 1.07 | 1.08 | 1.01 | 1.02 | 0.816 | 1.07 | 1.09 | 1 | 0.945 | 1.02 | 0.924 | 1.02 | 0.947 |
| PC-14 | 1.03 | 0.995 | 0.931 | 0.39 | 0.562 | 0.368 | 0.939 | 0.86 | 0.902 | 0.927 | 1 | 1 | 1.16 | 1.05 | 0.981 | 0.956 | 1.01 | 0.956 | 1.12 | 1 | 0.962 | 1.1 | 0.933 | 0.974 | 0.885 |
| RERF-LC-KJ | 0.976 | 1.03 | 1.06 | 1.03 | 1.04 | 0.959 | 1.02 | 1.14 | 0.981 | 0.95 | 1.06 | 0.973 | 0.98 | 0.961 | 1.01 | 0.997 | 0.987 | 1.02 | 0.96 | 0.985 | 0.916 | 0.968 | 0.862 | 0.859 | 0.743 |
| SK-LU-1 | 1.1 | 1.06 | 0.633 | – | 0.366 | 0.242 | 1 | 1.06 | 0.964 | 0.894 | 0.816 | 1.01 | 1.06 | 1.12 | 0.949 | 1.02 | 0.813 | 1.01 | 1.13 | 0.978 | 0.74 | 1.01 | 1.02 | 1.03 | 1.07 |
| SK-MES-1 | 1 | 1.03 | 1.05 | – | 0.818 | 0.372 | 1.01 | 1.02 | 0.937 | 0.93 | 0.943 | 1.01 | 1.17 | 1.11 | 0.95 | 1.04 | 1.25 | 1 | 1.05 | 0.943 | 0.755 | 1.07 | 0.906 | 0.919 | 0.858 |
| SW 900 | 0.876 | 0.957 | 1.17 | 0.68 | 0.891 | 0.475 | 0.786 | 1.11 | 0.719 | 0.695 | 0.867 | 0.841 | 1.06 | 0.667 | 0.742 | 0.925 | – | 0.846 | 0.915 | 0.777 | 0.741 | 0.954 | 0.832 | 0.928 | 0.677 |
| SW 1573 | 1.13 | 1.05 | 1.08 | – | 0.96 | 0.607 | 0.981 | 1.05 | 0.946 | 0.758 | 0.855 | 1.03 | 1.11 | 1.06 | 0.901 | 0.956 | 0.973 | 0.981 | 1.03 | 0.89 | 0.706 | 1.1 | 0.857 | 0.908 | 0.81 |
| UMC-11 | 0.997 | 0.961 | 0.979 | – | 0.822 | 0.537 | 0.949 | 1.1 | 0.875 | 0.721 | 0.726 | 0.944 | 0.966 | 0.742 | 0.903 | 0.621 | 0.324 | 0.978 | 1.08 | 0.934 | 0.905 | 0.996 | 0.777 | 0.955 | 0.868 |

— the supplement of paper PMC10307832
